Laboratory results as given in the SangsterLogP compilation.
Each block holds one compound with its values, some of them ahead of it.

SMILES: CC(C)(C)CCO
logP: 1.57

SMILES: CC(C)CC(C)O (stereo unspecified)
logP: 1.67

SMILES: CCC(C)(C)CO
logP: 1.57

SMILES: CC(C)CC(C)(C)O
logP: 1.67

SMILES: CCC(O)C(C)(C)C (stereo unspecified)
logP: 2.27

SMILES: CC(C)C(O)C(C)C
logP: 2.31

SMILES: CC(C)CC(C)CO (stereo unspecified)
logP: 2.19

Results, then the compound that gave them:

logP: 3.36
SMILES: CCCCCC(O)CCC (stereo unspecified)

logP: 6.64
SMILES: CCCCCCCCCCCCCCCO

logP: 2.39
SMILES: CCCC(C)(C)CO

logP: 2.39
SMILES: CC(C)(C)CCCO

logP: 1.78
SMILES: CCC(CC)CO

logP: 6.11
SMILES: CCCCCCCCCCCCCCO

logP: 3.36
SMILES: CCCCC(O)CCCC

logP: 2.31
SMILES: CCCCC(O)CC (stereo unspecified)

logP: 3.36
SMILES: CCCCCCC(O)CC (stereo unspecified)
